Experimental data from US20220125878A1, “Compositions and Methods for Preventing the Interaction Between SARS-COV-2 and L-Sign” (priority 2020, published 2022).

What was measured:
SARS-CoV-2 spike protein = target: T1, SARS-CoV-2 spike protein (Severe acute respiratory syndrome coronavirus 2, UniProt P0DTC2); assay type: binding
T1 construct: host or cells: HEK293T

human L-SIGN = target: T2, human L-SIGN (Homo sapiens, UniProt Q9H2X3); assay: Flow cytometry of Spike/Fc binding to L-SIGN-expressing HEK293T cells; details: EGTA 1 mM
T2 construct: host or cells: HEK293T
T2 sequence (Q9H2X3 1-399): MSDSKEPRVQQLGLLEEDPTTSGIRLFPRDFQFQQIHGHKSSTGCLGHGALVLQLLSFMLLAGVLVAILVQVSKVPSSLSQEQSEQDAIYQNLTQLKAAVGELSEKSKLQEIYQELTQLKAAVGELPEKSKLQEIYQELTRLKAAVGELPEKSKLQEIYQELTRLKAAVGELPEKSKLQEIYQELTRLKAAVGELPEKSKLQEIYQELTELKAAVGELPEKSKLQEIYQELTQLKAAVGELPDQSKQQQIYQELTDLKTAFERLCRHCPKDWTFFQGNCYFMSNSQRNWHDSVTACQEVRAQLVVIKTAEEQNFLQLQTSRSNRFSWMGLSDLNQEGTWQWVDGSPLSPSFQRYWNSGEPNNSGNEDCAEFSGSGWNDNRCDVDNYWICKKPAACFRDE

[1] = test system: high-mannose type N-glycans on spike protein-expressing HEK293T cells; assay: Flow cytometry of GNL lectin binding to spike protein-expressing HEK293T cells; assay type: cell-based; details: spike protein-expressing HEK293T cells treated with kifunensine 10 μM, 48 h
[2] = test system: SARS-CoV-2-type pseudo-typed virus (CoV2-type); assay type: cell-based
[3] = test system: VSVG-type pseudo-typed virus; assay type: cell-based

Row | Compound | inhibition of L-SIGN/Fc binding to spike protein-expressing HEK293T cells (SARS-CoV-2 spike protein) | blocking of the interaction of Spike/Fc with L-SIGN (human L-SIGN) | effect of treatment on binding of spike protein to GNL [1] | effect of treatment on binding of spike protein to L-SIGN/Fc (SARS-CoV-2 spike protein) | blocking of L-SIGN-mediated CoV2-type infection (% infection efficiency) [2] | blocking of control VSVG-type infection (% infection efficiency) [3]
1 | O=C(O)CN(CCOCCOCCN(CC(=O)O)CC(=O)O)CC(=O)O [EGTA] | inhibited | blocked |  |  |  | 
2 | O=C1N[C@@H]2[C@@H](O)[C@@H](O)[C@H](O)[C@@H](CO)N2C1=O [Kifunensine] |  |  | enhanced | enhanced |  | 
3 | mannan | inhibited |  |  |  | dose-dependently blocked | but not control VSVG-type infection
